Laboratory results published in patent publication US6943192B2, “Treatment regimen for administration of phenylacetylglutamine, phenylacetylisoglutamine, and/or phenylacetate” (priority 1998, dated 2005).

Legend:
medulloblastoma = conditions: cited from earlier work
[1] = tested on: K562 erythroleukemia cells; conditions: cited from earlier work
ovarian carcinoma = conditions: cited from earlier work
Ki-1 = conditions: cited from earlier work
[2] = tested on: breast carcinoma cell line HBL-100; conditions: cited from earlier work
[3] = tested on: chronic lymphocytic leukemia; conditions: cited from earlier work
murine fibrosarcoma V7T = conditions: cited from earlier work
astrocytoma = conditions: cited from earlier work
neuroblastoma = conditions: cited from earlier work
[4] = tested on: human promyelocytic leukemia HL-60; conditions: cited from earlier work
malignant melanoma = conditions: cited from earlier work
[5] = tested on: hormonally refractory prostate adenocarcinoma PC3; conditions: cited from earlier work
[6] = tested on: premalignant mesenchymal C3H 10T1/2 cells; conditions: cited from earlier work
[7] = cited from earlier work
cancer = conditions: clinical trials; cited from earlier work
rat Nb2 lymphoma = conditions: cited from earlier work
[8] = orally administered to rats; cited from earlier work
[9] = peak plasma level after oral administration to rats; assay type: in vivo; conditions: orally administered to rats
Description: First, Burzynski et al. (Drugs Exptl. Clin. Res. 12 Suppl. 1, 11-16 (1986)) reported complete colony reduction of HBL-100 and Ki No. 1 tumor cell lines with 5.0 mg/mL of either phenylacetic acid or antineoplaston AS2-1. […] Under typical administration regimes of antineoplaston AS2-1, the peak plasma levels of phenylacetic acid are approximately […], roughly […] less than the cytostatic concentration observed in tissue culture experiments.

KYN-1 = conditions: cited from earlier work
KMCH-1 = conditions: cited from earlier work
[10] = cited from earlier work; remark: listed apart in the source
[11] = tested on: human colon adenocarcinoma; conditions: cited from earlier work
S180 cells = conditions: mice implanted with S180 cells; cited from earlier work
KIM-1 = conditions: cited from earlier work
[12] = tested on: human breast cancer cell line MDA-MB-231; conditions: cited from earlier work

O=C(O)Cc1ccccc1 [phenylacetic acid]
terminal differentiation or phenotypic reversion (medulloblastoma): promoted terminal differentiation or phenotypic reversion | hemoglobin production [1]: enhanced hemoglobin production | terminal differentiation or phenotypic reversion (ovarian carcinoma): promoted terminal differentiation or phenotypic reversion | concentration giving complete colony reduction (Ki-1; Ki No. 1): 5.0 mg/mL | growth inhibition (Ki-1; Ki-1): dose-dependent growth inhibition | concentration giving complete colony reduction [2]: 5.0 mg/mL | growth inhibition [2]: dose-dependent growth inhibition | terminal differentiation or phenotypic reversion [3]: promoted terminal differentiation or phenotypic reversion | terminal differentiation or phenotypic reversion (murine fibrosarcoma V7T): promoted terminal differentiation or phenotypic reversion | terminal differentiation or phenotypic reversion (astrocytoma): promoted terminal differentiation or phenotypic reversion | terminal differentiation or phenotypic reversion (neuroblastoma): promoted terminal differentiation or phenotypic reversion | terminal differentiation or phenotypic reversion [4]: promoted terminal differentiation or phenotypic reversion | terminal differentiation or phenotypic reversion (malignant melanoma): promoted terminal differentiation or phenotypic reversion | terminal differentiation or phenotypic reversion [5]: promoted terminal differentiation or phenotypic reversion | adipocyte conversion [6]: caused adipocyte conversion | tumor progression in premalignant cells ([6]; in distinction to 5-aza-2-deoxycitidine): did not cause tumor progression

O=C1CCC(NC(=O)Cc2ccccc2)C(=O)N1 (centres unmarked) [3-phenylacetylamino-2,6-piperidinedione]
solubility in water [7]: poorly soluble in water | efficacy in treating cancer (cancer): effective in treating cancer | inhibition of the growth curve (rat Nb2 lymphoma): Dose-dependent inhibition | peak plasma level [8]: approximately 0.2 mg/mL | peak plasma level, fold less than the cytostatic concentration in tissue culture [9]: roughly 10 fold | inhibition of the growth curve (KYN-1): Dose-dependent inhibition | inhibition of the growth curve (KMCH-1): Dose-dependent inhibition | clearance in vivo [10]: rapidly cleared in vivo | inhibition of the growth curve [11]: Dose-dependent inhibition | cAMP levels in the livers and tumors of treated mice relative to control mice (S180 cells): significantly elevated | inhibition of the growth curve (KIM-1): Dose-dependent inhibition | concentration at which cytostasis was observed ([12]; MDA-MB-231): 2.0 mg/mL | effect on cultured MDA-MB-231 [12]: cytostatic effect
